Results as given in ChEMBL document CHEMBL5316338, “Discovery of Novel PTP1B Inhibitors with Once-Weekly Therapeutic Potential for Type 2 Diabetes: Design, Synthesis, and In Vitro and In Vivo Investigations of BimBH3 Peptide Analogues” (J Med Chem, 2023).
The source made the active and inactive calls. The rule behind the calls is not given here. Square brackets hold non-standard residues; d marks the D form. Peptide text beside a SMILES is read from it. * marks the point of attachment. ξ: configuration not given here. C18 diacid = O=C(O)CCCCCCCCCCCCCCCCC(=O)*; Myristoyl = CCCCCCCCCCCCCC(=O)*; ξR = N=C(N)NCCCC(N)C(=O)O

Key:
[1] = system: Mus musculus; assay: Antidiabetic activity against sc dosed C57BL/Ks db/db mouse assessed as reduction in glucagon level at 1 umol/kg by ELISA analysis; format: functional, organism-based; conditions: dose 1.0 µmol/kg
[2] = Stability of compound assessed as Proteinase K (unknown origin) mediated compound degradation by measuring fold change of half-life by HPLC analysis relative to BimBH312-mer peptide; format: ADME
[3] = Toxicity in C57BL/Ks db/db mouse assessed as signs of distress at 1 uM/kg, sc administered for 2 weeks; format: organism-based; conditions: in vivo, 336 h
[4] = system: Mus musculus; assay: Antidiabetic activity against C57BL/Ks db/db mouse assessed as redcution in fasting blood glucose level at 1 umol/kg, sc administered once a week and measured on day 28 by glucometer analysis (reference value: 32.4 +/- 1.1 […]); format: functional; conditions: dose 1 µmol/kg, time 28 day
[5] = biological target: T1, Carboxypeptidase A1 (Homo sapiens, UniProt P15085); assay: Stability of compound assessed as carboxypeptidase A (unknown origin) mediated compound degradation by measuring fold change of half-life by RP-HPLC analysis relative to BimBH312-mer peptide; format: ADME
T1 sequence (P15085 whole entry): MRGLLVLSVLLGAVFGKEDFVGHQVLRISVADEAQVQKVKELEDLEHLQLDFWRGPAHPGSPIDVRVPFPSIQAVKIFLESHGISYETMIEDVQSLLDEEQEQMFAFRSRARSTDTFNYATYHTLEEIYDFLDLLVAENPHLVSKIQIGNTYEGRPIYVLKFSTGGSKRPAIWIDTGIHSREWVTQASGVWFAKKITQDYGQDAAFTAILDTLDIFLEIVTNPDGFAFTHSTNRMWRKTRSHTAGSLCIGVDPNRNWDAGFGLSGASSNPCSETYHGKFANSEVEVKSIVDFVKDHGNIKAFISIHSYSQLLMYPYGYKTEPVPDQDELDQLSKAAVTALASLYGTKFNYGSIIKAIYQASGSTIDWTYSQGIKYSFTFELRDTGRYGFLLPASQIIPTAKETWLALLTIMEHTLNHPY

[6] = system: Mus musculus; assay: Antidiabetic activity against over-night fasted C57BL/ks db/db mouse assessed as suppression of increased blood glucose concentration at 1 uM/kg, sc pretreated with compound for 4 weeks followed by insulin stimulation and measured for 90 mins by insulin tolerance test; format: functional, organism-based; conditions: time 40410.0 min
[7] = system: Pepsin; assay: Stability of compound assessed as Pepsin (unknown origin) mediated compound degradation by measuring half-life by HPLC analysis; format: ADME; conditions: human
[8] = system: Mus musculus; assay: Antidiabetic activity against C57BL/Ks db/db mouse assessed as redcution in fasting blood glucose level at 1 umol/kg, sc administered once a week and measured on day 22 by glucometer analysis (reference value: 27.4 +/- 1.8 […]); format: functional; conditions: dose 1 µmol/kg, time 22 day
[9] = biological target: T2, Tyrosine-protein phosphatase non-receptor type 1 (Homo sapiens, UniProt P18031); assay: Inhibition of N-terminal His tagged recombinant human PTP1B expressed in Escherichia coli using pNPP as substrate assessed as substrate hydrolysis
T2 sequence (P18031 whole entry): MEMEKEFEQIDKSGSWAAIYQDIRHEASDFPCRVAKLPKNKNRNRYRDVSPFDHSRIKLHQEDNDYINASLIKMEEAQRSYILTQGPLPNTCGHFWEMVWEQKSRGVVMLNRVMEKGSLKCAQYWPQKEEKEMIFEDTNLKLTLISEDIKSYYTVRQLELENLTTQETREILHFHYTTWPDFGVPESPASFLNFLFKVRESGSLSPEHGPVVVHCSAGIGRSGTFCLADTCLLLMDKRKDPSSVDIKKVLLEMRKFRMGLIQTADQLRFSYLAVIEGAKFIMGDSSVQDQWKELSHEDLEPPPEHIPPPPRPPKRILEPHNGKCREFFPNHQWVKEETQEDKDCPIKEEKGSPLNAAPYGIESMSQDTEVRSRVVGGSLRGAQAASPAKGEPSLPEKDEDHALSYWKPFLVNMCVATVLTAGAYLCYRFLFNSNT

[10] = system: Mus musculus; assay: Antidiabetic activity against C57BL/Ks db/db mouse assessed as redcution in fasting blood glucose level at 1 umol/kg, sc administered once a week and measured on day 26 by glucometer analysis (reference value: 31.4 +/- 2.2 […]); format: functional; conditions: dose 1 µmol/kg, time 26 day
[11] = Stability of compound assessed as Pepsin (unknown origin) mediated compound degradation by measuring fold change of half-life by HPLC analysis relative to BimBH312-mer peptide; format: ADME; conditions: human
[12] = system: Mus musculus; assay: Antidiabetic activity against C57BL/Ks db/db mouse assessed as reduction in fasting blood glucose level at 1 uM/kg, sc administered once every 3 days for 2 weeks by glucometer analysis; format: functional, organism-based
[13] = system: Mus musculus; assay: Antidiabetic activity against C57BL/Ks db/db mouse assessed as reduction in fasting blood glucose level at 1 uM/kg, sc administered once daily and measured on day 8 by glucometer analysis; format: functional, organism-based; conditions: time 8.0 day

For `CCCCCCCCCCCCCC(=O)N[C@H](C(=O)N[C@@H](C)C(=O)N[C@@H](CCC(N)=O)C(=O)N[C@@H](CCC(=O)O)C(=O)N[C@@H](CC(C)C)C(=O)N[C@@H](CCCNC(=N)N)C(=O)NC(CCCNC(=N)N)C(=O)N[C@H](C(=O)NCC(=O)N[C@@H](CC(=O)O)C(=O)N[C@@H](CCC(=O)O)C(=O)N[C@@H](Cc1ccccc1)C(=O)O)[C@@H](C)CC)[C@@H](C)CC` (some centres undefined) (Myristoyl-IAQELR[ξR]IGDEF-OH), the Activity [1] was “Active”, the “fold change (FC)” value [2] was 5.8 and the Activity [3] was “Non-Toxic”. For the same compound, the “Fasting blood glucose level” value [4] was 15.6 mmol/L, the “fold change (FC)” value [5] was 31.9 and the Activity [6] was “Active”. The half-life [7] was 0.65 h, the “Fasting blood glucose level” value [8] was 11.2 mmol/L and the IC50 [9] was 263 nM. For the same compound, the “Fasting blood glucose level” value [10] was 12.9 mmol/L and the “fold change (FC)” value [11] was 29.5.

With `CC[C@H](C)[C@H](NC(=O)CCCCCCCCCCCCCCCCC(=O)O)C(=O)N[C@@H](C)C(=O)N[C@@H](CCC(N)=O)C(=O)N[C@@H](CCC(=O)O)C(=O)N[C@@H](CC(C)C)C(=O)N[C@@H](CCCNC(=N)N)C(=O)NC(CCCNC(=N)N)C(=O)N[C@H](C(=O)NCC(=O)N[C@@H](CC(=O)O)C(=O)N[C@@H](CCC(=O)O)C(=O)N[C@@H](Cc1ccccc1)C(=O)O)[C@@H](C)CC` (some centres undefined) ({C18 diacid}-IAQELR[ξR]IGDEF-OH) the Activity [1] was “Active”, the “fold change (FC)” value [2] was 2.6 and the Activity [3] was “Non-Toxic”. The “Fasting blood glucose level” value [4] was 18.4 mmol/L, the “fold change (FC)” value [5] was 140.9 and the Activity [12] was “Active”. The Activity [6] was “Active”, the half-life [7] was 6.77 h and the “Fasting blood glucose level” value [8] was 9.9 mmol/L. For the same compound, the IC50 [9] was 385 nM, the Activity [13] was “Active” and the “Fasting blood glucose level” value [10] was 22.9 mmol/L. The “fold change (FC)” value [11] was 307.7.
